{"source": "patent US20150315179A1", "about": "“COMPOUNDS AND METHODS OF TREATING NEUROLOGICAL DISORDERS” (Torrey Pines Institute For Molecular Studies, priority 2014, published 2015)", "key": {"sAPPα": {"tested_on": "sAPPα", "assay": "sAPPα increasing activity of THPI-244 analogs", "assay_type": "cell-based", "text": "(§1) The following table illustrates Chemical structures and properties of THPI-244 analogs selected out of 37 analogs, and each have significant sAPPα increasing activity. Toxicity is the minimum dose for toxicity."}, "[1]": {"tested_on": "sAPPα release, NT2 cells stably expressing human APP751", "assay": "sAPPα ELISA, NT2 cells expressing APP751", "assay_type": "cell-based", "conditions": "24 h", "description": "(5). To confirm the effect of THPI-244 on sAPPα levels in a neuronal cell line and by a tertiary assay, we exposed human Neuron-committed Teratocarcinoma cell line (NT2) stably expressing human APP751 to different concentrations of THPI-244 for 24 h and compared with that of Bryostatin, a classical activator of PKC known to stimulate sAPPα release. […] Levels of sAPPα were measured by ELISA using commercially available kit (cat #27734, IBL-America, Minneapolis, Minn., USA). […] Similar biphasic effect of Bryostatin was confirmed for Aβ42 also, measured again in NT2 stable cells by ELISA (cat # KHB3441, Life Technologies, Grand Island, N.Y., USA). Consistent with sAPPα, THPI-244 decreased Aβ42 levels dose-dependently starting from 50 nM (28%, p<0.05) to 2000 nM (64%, p<0.001) (n=4 independent experiments) (FIG. 1.7). Thus THPI-244 increased non-amyloidogenic processing of APP in NT2 cells."}, "[2]": {"tested_on": "PI3Kα, MAPK, PLC-γ, P75NTR pathways", "assay": "Signal transduction analysis, NT2 cells", "assay_type": "cell-based, human", "text": "(2). THPI-244 increases sAPPα by a novel mechanism of upregulating TrkA, a neurotrophic receptor. Therefore, in addition to increasing neuroprotective sAPPα and decreasing toxic Aβ, THPI-244 mediated increased TrkA protein levels are expected to provide neurotrophic support. Following the validation of the effect of THPI-244 in increasing sAPPα levels in CHO cells, NT2 cells, AD fibroblasts and human primary neurons, we were interested in identifying the molecular target of THPI-244 for unraveling the molecular mechanism by which it increases sAPPα which in turn can predict toxicity profile and whether to pursue long-term studies. Increased protein levels of both native and phosphorylated form of TrkA in NT2 cells and mouse brains by THPI-244 validated TrkA as the target."}, "[3]": {"tested_on": "sAPPα levels in conditioned medium of NT2 cells", "assay": "sAPPα immunoblot, NT2 cells with or without TrkA inhibitor", "assay_type": "cell-based, human", "conditions": "24 h", "description": "(3). THPI-244 increases TrkA receptor levels independent of protein kinase C (PKC). Next to clarify whether increased sAPPα levels depends on increased TrkA activation, NT2 cells were treated with THPI-244 with or without TrkA inhibitor (cat # GW 441756, Tocris Bioscience) at 50 nM final concentration. After 24 h, sAPPα levels were quantified from the conditioned medium by immunoblots. […] We next wanted to address whether increased TrkA protein levels by THPI-244 depends on PKC since PKC activators are well-known to induce sAPPα secretion (Etcheberringaray, R., et al., 2004, PNAS, 101, 11141-11146). NT2 cells were similarly treated with THPI-244 at 100 nM with or without PKC inhibitor (GF 109203, cat #0741, Tocris Bioscience) at 1.0 nM and TrkA protein levels were quantified by immunoblots as shown in FIG. 1.10 (right). […] Thus increased sAPPα level by THPI-244 is through upregulation of TrkA receptor independent of PKC."}, "[4]": {"tested_on": "sAPPα release from 7WD10 cells", "assay": "AlphaLISA sAPPα release assay (pilot screen)", "assay_type": "cell-based", "conditions": "5 μM, 7WD10 cells, 24 h", "description": "Pilot screen of AlphaLISA sAPPα release assay. 8 μL of assay media (DMEM supplemented with 10% FBS and 1× Penicillin/Streptomycin) containing 20,000 cells were added to all wells of the assay plate, except column 1 where only media was added. Plates were incubated for 4 h at 37° C., 5% CO2, 95% RH after which 80 nL of test compounds in DMSO or DMSO alone were added to respective wells using a pin tool device (VP Scientific, San Diego). After 24 h of incubation at 37° C., 5% CO2, 95% RH, sAPPα AlphaLISA beads were added in 10 μL of buffer, equilibrated for 1 h, and AlphaLISA signal was measured using a Biotek H4 Synergy microplate reader (Biotek Inc). Three parameters were calculated on a per-plate basis: (a) the signal-to-background ratio (S/B); (b) the coefficient for variation [CV; CV=(standard deviation/mean)×100)] for all compound test wells; and (c) the Z′-factor [31]. Nominally active compounds from the pilot screen were determined using mean plus 3 times the standard deviation (Mean+3SD) was used as the cut-off."}, "[5]": {"tested_on": "sAPPα levels, human primary neurons transiently transfected with APP751 with Swedish mutation", "assay": "sAPPα ELISA, human primary neurons transfected with APP751", "assay_type": "cell-based", "description": "(1). […] Therefore, we first used fibroblasts derived from AD patients (AG06263C, Coriell Cell repository, supported by NINDS/NIH) and exposed to THPI-244 for 24 h and measured sAPPα release by ELISA as done above for NT2 cells. […] We also confirmed dose-dependent effect of THPI-244 on sAPPα levels in human primary neurons transiently transfected with APP751 with Swedish mutation which is trafficked differently from WT APP and releases more sAPPα. Human neurons were grown on specially coated glass coverslips (cat # GG-18-PDL, NeuVitro, Germany). We could reproducibly achieve nearly 30% transfection efficiency using a nanoparticle based transfection reagent called Neuromag (cat # NM150299, OZ Biosciences, France)."}, "TrkA": {"tested_on": "TrkA", "assay": "Mouse brain lysate immunoblot, TrkA", "assay_type": "in vivo", "conditions": "i.p. 100 mg/kg for 5 days, brain lysates", "description": "FIGS. 9.2A and B illustrate that THPI-244 increases TrkA and sAPPα in the mouse brain. FIG. 9.2A illustrates that THPI-244 was administered to mice by i.p. injections at 100 mg/kg body weight for 5 days and the brain lysates were subjected to immunoblots. Specific antibodies were used to detect TrkA and sAPPα. […] Data are mean±SEM, n=3*, p<0.05, ***, p<0.001."}, "BBB of THPI-244 analogs": {"assay": "BBB of THPI-244 analogs", "text": "as §1"}}}
{"smiles": "O=C(Cc1ccccc1)N[C@H](CNc1nc(CN2CCN(C(=O)Cc3ccccc3)CC2)cs1)c1ccccc1", "note": "[THPI-244]", "values": [{"measurement": "% sAPPα ↑", "setting": "sAPPα", "result": 257, "unit": "%"}, {"measurement": "concentration from which sAPPα increase is significant", "setting": "[1]", "result": 50, "unit": "nM"}, {"measurement": "MAPK or PLC-γ pathways", "setting": "[2]", "result": "not"}, {"measurement": "PI3Kα pathway", "setting": "[2]", "result": "activation"}, {"measurement": "sAPPα levels", "setting": "[3]; THPI-244 100 nM with TrkA inhibitor GW 441756 50 nM", "result": 132, "unit": "%"}, {"measurement": "sAPPα levels", "setting": "[3]; THPI-244 100 nM", "result": 245, "unit": "%"}, {"measurement": "increase of Alpha signal (sAPPα release)", "setting": "[4]", "result": "~2", "unit": "fold"}, {"measurement": "increase of sAPPα levels", "setting": "[5]; 50 nM", "result": 171, "unit": "%"}, {"measurement": "increase of sAPPα levels", "setting": "[5]; 2000 nM", "result": 301, "unit": "%"}, {"measurement": "increase of TrkA", "setting": "TrkA", "result": 78, "unit": "%"}, {"measurement": "% BBB", "setting": "BBB of THPI-244 analogs", "result": 0.1, "unit": "%"}]}
